Earlier results, collected in publication PMC6257630, “Photoactivatable Cell-Selective Dinuclear trans-Diazidoplatinum(IV) Anticancer Prodrugs” (Inorganic Chemistry, 2018).

Test system: cisplatin-resistant A2780cis cells
Set-up: method as in PMID 20677309
Settings: irradiation with UVA (365 nm); cited from earlier work

## trans,trans,trans-[Pt(N3)2(OH)2(py)2] [FM-190]
  IC50: 14.5 µM
